{"source": "patent US8946149B2", "about": "“Use of exendin and analogs thereof to delay or prevent cardiac remodeling” (Amylin Pharmaceuticals, LLC, priority 2005, dated 2015)", "key": {"cloned GLP-1 receptor": {"test_system": "cloned GLP-1 receptor", "conditions": "transfected cells; cited from earlier work"}, "MI-induced rat model [1]": {"test_system": "MI-induced rat model", "assay": "Whole body composition, heart, lung weight and infarct size in rats with CHF after LAD ligation", "format": "in vivo, Sprague-Dawley rats", "conditions": "for B.W / Fat mass / Fluid mass / Infarct size / LV weight / LV weight/B.W. / Lean mass / Lung weight / Lung weight/B.W. / RV weight / RV weight/B.W.: 13th week of MI, mean ± SEM", "experimental": "(§1) Male Sprague-Dawley® rats (250-300 g) are anesthetized by using 5% isoflurane and a left thoracotomy was performed. The left main anterior descending artery (LAD) was ligated to induce myocardial infarction. In addition, sham animals (n=10) were subjected to the same surgical procedure without ligation of the LAD.\n(§2) After two weeks, rats were treated with 2.5 pmol/kg/min GLP-1 (n=11) (GLPL), 25 pmol/kg/min GLP-1 (n=12) (GLPH), 1.67 pmol/kg/min an exendin agonist, AC3174, (n=12) (AC3174L), 5 pmol/kg/min exendin agonist (n=7) (AC3174H), or vehicle (n=14) via subcutaneous infusion for 11 weeks. Echocardiography was performed at the 3rd, 5th, 9th, and 13th week of myocardial infarction. Left ventricular (LV) end systolic dimension (ESD) and diastolic dimension (EDD), LV systolic volume and diastolic volume, left atrial volume were recorded. At the 13th week of MI, the hearts were excised, the LV mass were weighed and LV mass/body weight ratio was determined."}, "MI-induced rat model [2]": {"test_system": "MI-induced rat model", "assay": "Echocardiography and cardiac function (E/A ratio, LVEDP, cardiac output, +dp/dtmax, LV dimensions) in rats after myocardial infarction", "format": "in vivo, Sprague-Dawley rats", "experimental": "as §1, §2"}, "MI-induced rat model [3]": {"test_system": "MI-induced rat model", "assay": "Treadmill test, plasma lactate and insulin sensitivity in rats after myocardial infarction", "format": "in vivo, Sprague-Dawley rats"}, "[4]": {"conditions": "GLPH: GLP-1 25 pmol/kg/min s.c. infusion 11 weeks"}, "[5]": {"conditions": "GLPL: GLP-1 2.5 pmol/kg/min s.c. infusion 11 weeks"}}}
{"substance": "exendin[9-39]: truncated exendin peptide, a carboxyamidated molecule, antagonist of GLP-1", "values": [{"measurement": "action at the cloned GLP-1 receptor (cAMP)", "setting": "cloned GLP-1 receptor", "result": "antagonist"}]}
{"substance": "GLP-1 (7-36) amide", "values": [{"measurement": "reduction of infarct size compared to the control group", "setting": "MI-induced rat model [1]; 25 pmol/kg/min s.c. infusion, p<0.05", "result": 30, "unit": "%"}, {"measurement": "B.W", "setting": "MI-induced rat model [1]; [4]", "result": "518 ± 12", "unit": "g"}, {"measurement": "Fat mass", "setting": "MI-induced rat model [1]; [4]", "result": "51 ± 9", "unit": "g"}, {"measurement": "Fluid mass", "setting": "MI-induced rat model [1]; [4]", "result": "331 ± 15", "unit": "g"}, {"measurement": "Infarct size", "setting": "MI-induced rat model [1]; [4]", "result": "29 ± 2", "unit": "%"}, {"measurement": "LV weight", "setting": "MI-induced rat model [1]; [4]", "result": "1.13 ± 0.03", "unit": "g"}, {"measurement": "LV weight/B.W.", "setting": "MI-induced rat model [1]; [4]", "result": "0.22 ± 0.01", "unit": "%"}, {"measurement": "Lean mass", "setting": "MI-induced rat model [1]; [4]", "result": "35 ± 2", "unit": "g"}, {"measurement": "Lung weight", "setting": "MI-induced rat model [1]; [4]", "result": "1.66 ± 0.13", "unit": "g"}, {"measurement": "Lung weight/B.W.", "setting": "MI-induced rat model [1]; [4]", "result": "0.32 ± 0.02", "unit": "%"}, {"measurement": "RV weight", "setting": "MI-induced rat model [1]; [4]", "result": "0.23 ± 0.01", "unit": "g"}, {"measurement": "RV weight/B.W.", "setting": "MI-induced rat model [1]; [4]", "result": "0.04 ± 0.00", "unit": "%"}, {"measurement": "B.W", "setting": "MI-induced rat model [1]; [5]", "result": "523 ± 14", "unit": "g"}, {"measurement": "Fat mass", "setting": "MI-induced rat model [1]; [5]", "result": "45 ± 6", "unit": "g"}, {"measurement": "Fluid mass", "setting": "MI-induced rat model [1]; [5]", "result": "332 ± 11", "unit": "g"}, {"measurement": "Infarct size", "setting": "MI-induced rat model [1]; [5]", "result": "30 ± 2", "unit": "%"}, {"measurement": "LV weight", "setting": "MI-induced rat model [1]; [5]", "result": "1.26 ± 0.05", "unit": "g"}, {"measurement": "LV weight/B.W.", "setting": "MI-induced rat model [1]; [5]", "result": "0.24 ± 0.01", "unit": "%"}, {"measurement": "Lean mass", "setting": "MI-induced rat model [1]; [5]", "result": "37 ± 2", "unit": "g"}, {"measurement": "Lung weight", "setting": "MI-induced rat model [1]; [5]", "result": "1.94 ± 0.35", "unit": "g"}, {"measurement": "Lung weight/B.W.", "setting": "MI-induced rat model [1]; [5]", "result": "0.37 ± 0.07", "unit": "%"}, {"measurement": "RV weight", "setting": "MI-induced rat model [1]; [5]", "result": "0.22 ± 0.01", "unit": "g"}, {"measurement": "RV weight/B.W.", "setting": "MI-induced rat model [1]; [5]", "result": "0.04 ± 0.00", "unit": "%"}, {"measurement": "effect on LV weight (summary)", "setting": "MI-induced rat model [1]; chronic treatment", "result": "attenuated"}, {"measurement": "effect on infarction size (summary)", "setting": "MI-induced rat model [1]; chronic treatment", "result": "reduced"}, {"measurement": "effect on the increase of E/A ratio during CHF progression", "setting": "MI-induced rat model [2]; at each dose, s.c. infusion 11 weeks, 13 weeks after MI, vs control (+116% vs sham)", "result": "prevented increases"}, {"measurement": "effect on enlargement of LV chamber", "setting": "MI-induced rat model [2]; chronic treatment", "result": "slowed"}, {"measurement": "effect on cardiac output", "setting": "MI-induced rat model [2]; s.c. infusion 11 weeks, control reduced by 19% vs sham", "result": "normalized"}, {"measurement": "effect on contractility (+dp/dtmax)", "setting": "MI-induced rat model [2]; s.c. infusion 11 weeks, control reduced by 24% vs sham", "result": "normalized"}, {"measurement": "effect on remodeling (LV mass, LV end diastolic dimension and systolic dimension increase)", "setting": "MI-induced rat model [2]; s.c. infusion 11 weeks, progression of CHF", "result": "significantly reduced"}, {"measurement": "effect on LV end diastolic pressure (LVEDP) elevation", "setting": "MI-induced rat model [2]; s.c. infusion 11 weeks, vehicle group +97% vs sham", "result": "eliminated"}, {"measurement": "effect on exercise capacity (EC)", "setting": "MI-induced rat model [3]; at each dose, treadmill test", "result": "significantly improved"}, {"measurement": "effect on exercise efficiency (EC/VO2)", "setting": "MI-induced rat model [3]; at each dose, treadmill test", "result": "significantly improved"}, {"measurement": "effect on baseline plasma lactate", "setting": "MI-induced rat model [3]; chronic treatment", "result": "attenuated"}, {"measurement": "effect on exercise capacity/peak lactate ratio", "setting": "MI-induced rat model [3]; chronic treatment", "result": "improved"}, {"measurement": "effect on insulin sensitivity", "setting": "MI-induced rat model [3]; chronic treatment", "result": "improved"}]}
